How the values were obtained:
HepG2 cells [1] = assay: Cell migration inhibition assay (xCELLigence, CIM plates); assay type: cell-based, human; details: 24 h pre-incubation at one-fourth of IC50
Procedure: By using the xCELLigence platform, we evaluated migration potential of HepG2 cells after the administration of compounds. We incubated the cells with compounds 54–61 at the concentration corresponding to one-fourth of the IC50 value for 24 h before the analysis, and the cells were then seeded on a CIM plate. Impedance-based cell index (CI) of HepG2 cells was measured every 30 min for 72 h. […] The most significant changes were observed within the first 24 h (Figure 3A). Thus, to obtain more insight into the altered migration profile caused by the analyzed compounds, we additionally calculated the slope representing the rate of change of the cell index within the first 24 h.
Transwell cell migration experiments were performed using xCELLigence RTCA Analyzer (Roche) in Cell Invasion and Migration (CIM) plates (ACEA Biosciences, San Diego, CA, USA). Each well consisted of an upper and a lower chamber separated by a microporous polyethylene terephthalate (PET) membrane containing randomly distributed 8 μm-pores. Prior to the migration assay, HepG2 cells (15 × 10^3) were seeded onto 48-well plates containing the growth medium (EMEM) and incubated until 70–80% confluency and incubated at 37 °C in a humidified atmosphere containing 5% CO2. Subsequently, the cells were treated for 24 h with the tested compounds at the final concentration corresponding to the one-fourth of IC50 value. Next, 160 μL of complete growth medium (supplemented with 10% FBS) was added to the lower chamber and 50 μL of serum-free growth medium to the upper chambers of CIM plate. The plates were incubated at 37 °C and 5% CO2 saturation for 1 h prior to insertion into the xCELLigence platform. To initiate a transwell migration experiment, cells were detached, resuspended in the serum-free growth medium, and seeded in the upper chamber at a density of 1 × 10^4 cells in 100 μL per well, previously treated with the compounds. The impedance of the microelectrode array was monitored and converted to the cell index (CI). Normalization values were recorded using the RTCA Software 1.2.1. […]
Figure 3 Real-time migration potential of HepG2 cells after 24 h administration of compounds 54–61. The migration potential of the cells was monitored using the xCELLigence system. HepG2 cells were incubated with the analyzed compounds for 24 h before the analysis at the concentration corresponding to one-fourth of the IC50 value. The impedance (cell index values) was measured every 30 min for the next 72 h. To eliminate the influence of the solvent, DMSO was added to the cells in a volume that corresponded to the highest compound concentration (A). The slope parameter represents the rate of changes in CI values of HepG2 cells within the first 24 h (B). […]

HepG2 cells [2] = assay: Cell cycle analysis by flow cytometry (PI staining); assay type: cell-based, human; details: HepG2, 24 h at IC50; for cells in G2M phase: control 11.5%
Procedure: To reveal the mechanism underlying the inhibitory effect of the obtained compounds on cellular viability, we examined cell cycle regulation. For this purpose, HepG2 cells were exposed to compounds 54–61 (54 (5.5 µM), 55 (3.4 µM), 56 (12 µM), 57 (3.1 µM), 58 (3.9 µM), 59 (5.4 µM), 60 (31 µM), and 61 (4.8 µM)). The chosen concentration of each of these compounds corresponded to their total IC50 value.
After exposure, HepG2 cells were examined by flow cytometry, and their DNA content was measured by PI staining. […] Compounds 54–59 caused arrest in the G1/G0 phase since we observed a higher number of cells in that phase as compared to control (Figure 4 and Figure S297, ESI). […] Compounds 60 and 61 arrested cell cycle in the G2M phase, where the accumulation of cells was observed (>18% vs. 11.5% in control cells) (Figure 4 and Figure S297, ESI). In comparison, mitonafide and pinafide induced cell cycle arrest at the S and G2M phases, respectively. […] In contrast, 1,8-naphthalimide products with carborane modification at position 3 caused cell cycle arrest at the G2M phase, similar to pinafide and compounds 60 and 61 from this study.
HepG2 (5 × 10^5) cells were seeded onto 6-well cell culture plates and incubated for 24 h in a fully supplemented EMEM medium (Corning®) with addition of the analyzed compounds at a concentration corresponding to their total IC50 values. DNA content was determined by flow cytometry with PI (Sigma-Aldrich, Steinheim, Germany) staining. After incubation, the cells were trypsinized and washed twice with PBS (1 mL). In the next step, the cells were fixed with an ice-cold 80% ethanol. After 1 h incubation at 4 °C, the cells were stored at −20 °C for further analysis. After double wash with PBS, the fixed cells were stained with PI (50 μg/mL) with RNAse A (100 μg/mL) for 30 min at 37 °C in the dark. PI fluorescence was measured by FACSCalibur (Becton Dickinson), and data were analyzed by FlowJo software. […]

N-[2-N-Pyrrolidinyl)ethyl]-4-[(6-(2-(1,7-dicarba-closo-dodecaborane-1-yl)-ethylamino)hexyl)amino]-1,8-naphthalimide [Compound 61]
effect on migration potential of HepG2 cells (cell index, slope in first 24 h) (HepG2 cells [1]): highest impairment
cells in G2M phase (HepG2 cells [2]): > 18%

N-[2-N-Pyrrolidinyl)ethyl]-4-[(6-(2-(1,2-dicarba-closo-dodecaborane-1-yl)-ethylamino)hexyl)amino]-1,8-naphthalimide [Compound 60]
effect on migration potential of HepG2 cells (cell index, slope in first 24 h) (HepG2 cells [1]): influenced the migratory activity most
cells in G2M phase (HepG2 cells [2]): > 18%

N-[2-(Pyrrolidin-1-yl)ethyl]-4-[(2-(2-(1,2-dicarba-closo-dodecaborane-1-yl)-ethylamino)ethyl)amino]-1,8-naphthalimide [Compound 56]
effect on migration potential of HepG2 cells (cell index, slope in first 24 h) (HepG2 cells [1]): influenced the migratory activity most

N-[2-(Dimethylamino)ethyl]-4-[(6-(2-(1,2-dicarba-closo-dodecaborane-1-yl)-ethylamino)hexyl)amino]-1,8-naphthalimide [Compound 58]
G0/G1 cell fraction (HepG2 cells [2]; control 60.1%): 70.4%

N-[2-(Pyrrolidin-1-yl)ethyl]-4-[(2-(2-(1,7-dicarba-closo-dodecaborane-1-yl)-ethylamino)ethyl)amino]-1,8-naphthalimide [Compound 57]
effect on migration potential of HepG2 cells (cell index, slope in first 24 h) (HepG2 cells [1]): influenced the migratory activity most

Source: paper PMC9101373, “Design of DNA Intercalators Based on 4-Carboranyl-1,8-Naphthalimides: Investigation of Their DNA-Binding Ability and Anticancer Activity” (International Journal of Molecular Sciences, 2022)
